Assay [1] has as its target T1, AR-LBD / TIF2 box III LXXLL peptide (Homo sapiens, UniProt P10275).
T1 construct: The pET28a-AR-LBD (622-919) construct; made in house
T1 sequence (P10275 622-919): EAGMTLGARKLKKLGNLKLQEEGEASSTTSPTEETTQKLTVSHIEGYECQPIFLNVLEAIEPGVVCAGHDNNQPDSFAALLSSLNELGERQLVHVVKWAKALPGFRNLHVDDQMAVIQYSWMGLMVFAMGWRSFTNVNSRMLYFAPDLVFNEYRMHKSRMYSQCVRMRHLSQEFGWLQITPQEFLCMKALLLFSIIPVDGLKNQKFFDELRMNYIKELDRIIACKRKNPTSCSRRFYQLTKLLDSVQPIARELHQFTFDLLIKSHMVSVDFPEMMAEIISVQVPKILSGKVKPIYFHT
Briefly: AR-LBD::TIF2 Box III LXXLL peptide binding AlphaScreen assay. Here is the method:
[…] Biotinylated (Biotin-HN-[…]-CONH2; SEQ ID NO: 1) and non-biotinylated TIF2-box-III (738-756) peptide (H2N-[…]-CONH2; SEQ ID NO: 2) were synthesized by the Peptide & Peptoid Synthesis Facility, at the University of Pittsburgh Health Sciences Core Research Facilities. ALPHAScreen® streptavidin donor beads (SA-DB) and nickel chelate acceptor beads (Ni-AB) were purchased from Perkin Elmer (Waltham, MA). The assay was performed in 384-well white opaque plates (Greiner BioOne, #781080). […] 18 μL of the SA-DB bound biotinylated TIF2 peptide mixture was added to the assay plate before 5 μL of compounds were transferred into assay wells and 27 μL of the AlphaScreen® donor and acceptor B bead mixture was added to the plate. 32 wells containing 0.5% DMSO provided maximum controls and 32 wells containing a 500-fold excess of unlabeled TIF2-box-III (75 μM) were used as minimum controls. The combined head-protein-peptide-compound mixture was incubated for 1 h at room temperature in the dark, and then the RLU's were acquired at 520 nm after excitation at 680 nm on an EnVision® plate reader (Perkin Elmer, Waltham, MA) as described previously (Fancher et al., Assay Drug Dev Technol. 2019, 17:364-386).

The nature of assay [2]: GI50 given in Tables 4-6 (test not described). Format: cell-based. The note with it: cell line not stated.
Where [3] appears, read: AlphaScreen, read-out: Inhibition DHT-induced TIF2 NR Box 3 LXXLL peptide binding to AR-LBD IC50.
Where [4] appears, read: read-out: IC50 in TIF2 LXXLL-peptide AR-LBD binding assay (potency range in words).

Consider 14 molecules from patent US20260083751A1, “ALLOSTERIC MODULATORS OF ANDROGEN RECEPTOR COACTIVATOR RECRUITMENT FOR CRPC THERAPY” (University of Pittsburgh – Of the Commonwealth System of …, priority 2022, published 2026).

Values joined by “and” are separate entries in the source; they are usually repeats but may differ in a detail not shown here. Equal entries are not always repeated. Where two headings read alike, the source gives them in different places.

Take `Cc1ccccc1-c1cc(O)c2c(c1)CN(c1nc(C(N)=O)cs1)CCO2` [Compound S1-1]: the IC50 in assay [1] (setting [3]) was 21 to 83 µM and 12 µM; in assay [1] (setting [4]) it was 10 to 100 µM. The same molecule yielded a GI50 in assay [2] of over 100 µM.
As to `Cc1nc(N)cc(N2CCOc3c(O)cc(-c4ccccc4C)cc3C2)n1` [Compound S1-2], in assay [1], the “IC50 in TIF2 LXXLL-peptide AR-LBD binding assay (potency range in words)” value is recorded as “mid 44 μM”. Further, in assay [1] (setting [3]), the IC50 was 21 to 83 µM. The molecule also had a GI50 in assay [2] of 51.9 µM.
With `Cc1ccccc1-c1cc(O)c2c(c1)CN(c1nccs1)CCO2` [Compound S1-3], in assay [1], the “IC50 in TIF2 LXXLL-peptide AR-LBD binding assay (potency range in words)” value was “mid 44 μM”. Further, the IC50 in assay [1] (setting [3]) fell in the range of 21 to 83 µM. Also, the GI50 in assay [2] is over 100 µM.
As to `Cc1ccccc1-c1cc(O)c2c(c1)CN(c1cc(N)ncn1)CCO2` [Compound S1-4], in assay [2], the GI50 is over 100 µM.
Take `COc1cc(-c2ccc(C)s2)cc2c1OCCN(c1nc(C(N)=O)cs1)C2` [Compound S1-5]: the IC50 in assay [1] (setting [3]) is over 100 µM. The same molecule showed a GI50 in assay [2] of over 100 µM.
`Cc1nsc(NC(=O)N2CCC(Sc3ccccc3C)CC2)n1` [Compound S2-6]: the IC50 is 49.5 µM in assay [1] (setting [3]) and 10 to 100 µM in assay [1] (setting [4]). The molecule also had a GI50 in assay [2] of over 100 µM.
`Cc1nsc(NC(=O)N2CCC(Cn3ccnc3)CC2)n1` [Compound S2-7] registered a GI50 in assay [2] of over 100 µM.
Take `Cc1c(-c2ccccc2F)[nH]c2ccc(CNC(=O)CCc3cn[nH]c3)cc12` [Compound S3-11]: the IC50 in assay [1] (setting [3]) was 50 µM and 45.2 µM; in assay [1] (setting [4]) it was 10 to 100 µM. In addition, the GI50 in assay [2] was over 100 µM.
For the molecule `Cc1c(-c2ccccc2F)[nH]c2ccc(CNC(=O)CCc3cnccn3)cc12` [Compound S3-12], the IC50 in assay [1] (setting [3]) was over 100 µM. The molecule also returned a GI50 in assay [2] of over 100 µM.
For the molecule `CC(=O)NCCC(=O)NCc1ccc2[nH]c(-c3ccccc3F)c(C)c2c1` [Compound S3-13], the IC50 in assay [1] (setting [3]) was 92 µM; in assay [1] (setting [4]) it was 10 to 100 µM. In assay [2], this molecule had a GI50 of over 100 µM.
Turning to `Cc1c(-c2ccccc2F)[nH]c2ccc(CNC(=O)c3ccc(CO)o3)cc12` [Compound S3-14], the IC50 in assay [1] (setting [4]) lay in the range of 10 to 100 µM. This molecule came in with a GI50 in assay [2] of over 100 µM.
The like results for `Cc1c(-c2ccc(F)cc2)[nH]c2ccc(CNC(=O)c3ccc(CO)o3)cc12` [Compound S3-15] were, in that order, 10 to 100 µM and over 100 µM.
On the same counts, the results for `Cc1cccc2c(-c3ccc(O)c(F)c3)c[nH]c12` [Compound S3-17] are 1 to 10 µM and 99 µM.
Consider `CNC(=O)c1ccc(-c2c[nH]c3c(C)cccc23)cc1` [Compound S3-21], for which the IC50 in assay [1] (setting [3]) is over 100 µM. In assay [2], this molecule came in with a GI50 of over 100 µM.
